Test results published in patent publication US6703483B1, “Compounds useful in pain management” (Cornell Research Foundation, Inc., priority 1999, dated 2004).

Experiments:
[1] = Respiratory depression studies (whole body plethysmography) after i.th. administration; conditions: rat; for decrease of minute ventilation: during 3 to 6 hours after administration
Description: Whole body plethysmography was performed as described in the literature (K. Tatsumi et al., J. Appl. Physiol. 71, 37-42 (1991)). An unrestrained rat was placed in a 3-liter whole-body plethysmograph chamber and breathed 100% humidified air supplied into and out of the chamber at a rate of 1000 ml/min. After a 15-min acclimation period the inlet and outlet of the chamber were closed and the pressure changes in the box, caused by the warming and wetting of the gas inspired by the rat and the cooling and drying of the expired gas, were recorded using a high-gain differential pressure transducer. A calibration volume of 0.2 ml of air was regularly introduced into the chamber during the recordings. The recordings were made for 20-30 seconds. Subsequently, the inlet and outlet were opened, and the gas supply was changed to a mixture of 5% CO2 and 21% O2 in N2 (100% humidified) and the rat was allowed to breathe the gas mixture for 5 min to reach a steady-state ventilatory condition. The recordings of changes in pressure were repeated with the chamber closed. Tidal volumes were calculated from the pressure changes using the equation derived by J. E. Drorbaugh and W. O. Fenn, Pediatrics 16, 81-87 (1955). Respiratory frequencies were also determined from the number of respiratory cycles in the recordings and minute ventilations were calculated (tidal volume x frequency).
Compounds were administered at a low dose (3×ED50 determined in the analgesic test) and at a high dose (30×ED50).

[2] = Hemodynamic and metabolic effects in the pregnant sheep model; type: in vivo; conditions: i.v. infusion 0.6 mg/kg/h and 0.06 mg/kg/h, respectively
Description: Using the same instrumented pregnant sheep model described above, DALDA and its analogs were administered by i.v. infusion at a dose of 0.6 mg/kg/h and 0.06 mg/kg/h, respectively. No effect on maternal blood pressure, heart rate, blood gases and plasma glucose were observed. Similarly, neither peptide had any effect on fetal blood pressure, heart rate, blood gases and plasma glucose.

[3] = In vivo disposition in pregnant sheep (fetal plasma, placental transfer); conditions: i.v. infusion to pregnant sheep
Description: The in vivo disposition after i.v. administration to pregnant sheep was examined by using procedures described in the literature (H. H. Szeto et al. J. Pharmacol. Exp. Ther. 284. 61-65 (1998)). Chronic indwelling catheters were surgically placed in four pregnant ewes (gestional age, 115-120 days; term ˜145 days) as described by H. H. Szeto et al., Am. J. Physiol. 258, R1453-R1458 (1990). […] The compounds according to the invention were administered as a constant-rate intravenous infusion (0.6 mg/kg/h and 0.06 mg/kg/h, respectively, for 4 h) to the sheep, and blood samples were collected at 0, 1, 2, 3, 3.5, 4, 4.25, 4.5, 5, 6, 7, 12 and 24 h. Blood samples were collected form the fetus at 0, 3, 3.5, 4, 5 and 6 h. All blood samples were collected into chilled borosilicate glass tubes containing EDTA and centrifuged, and the plasma was stored in glass containers with Teflon-lined caps and frozen at −80° C.
The compounds were quantified by using reversed-phase HPLC and MS detection, as described by Grigoriants et al., J. Chromatogr. B, Biomedical Applications 695, 287-298 (1997). […] The filtered plasma sample was chromatographed on an RP-analytical column (Delta Pak, 5 μm, C18, 100 Å, 150×3.9 mm; Waters, Milford, Mass.) at a flow rate of 1.5 ml/min, and UV absorption was monitored at 200 nm. […] Continuous flow-LSIMS was used to quantify DALDA. […]

μ receptor = molecular target: T1, μ receptor (Rattus norvegicus, UniProt P33535); conditions: rat brain membranes; cited from earlier work
T1 construct: from tissue; host or cells: rat brain (cerebellum removed) membranes

[4] = 2 h after i.th. administration, dose 7.5 μg (32×ED50); cited from earlier work
μ receptors = conditions: GPI; cited from earlier work

T1 sequence (P33535 whole entry): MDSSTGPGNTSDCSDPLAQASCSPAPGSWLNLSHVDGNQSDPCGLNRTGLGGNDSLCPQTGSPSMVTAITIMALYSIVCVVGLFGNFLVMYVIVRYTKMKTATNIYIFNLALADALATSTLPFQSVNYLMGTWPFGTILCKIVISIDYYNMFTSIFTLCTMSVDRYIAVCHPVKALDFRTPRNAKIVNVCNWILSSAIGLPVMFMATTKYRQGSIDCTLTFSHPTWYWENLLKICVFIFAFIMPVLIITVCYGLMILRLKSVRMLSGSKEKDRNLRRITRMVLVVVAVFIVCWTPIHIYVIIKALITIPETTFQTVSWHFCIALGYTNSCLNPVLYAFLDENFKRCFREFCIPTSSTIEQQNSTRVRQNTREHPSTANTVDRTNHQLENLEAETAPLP

Compound | decrease of minute ventilation compared to saline control ([1]; low dose (3×ED50) and high dose (30×ED50)) | decrease of minute ventilation ([1]; high dose (30×ED50)) [%] | effect on maternal blood pressure, heart rate, blood gases and plasma glucose [2] | crossing of the placental barrier [3] | μ receptor affinity (μ receptor) | μ receptor selectivity (μ receptor) | delayed respiratory depression [4] | μ agonist potency (μ receptors) | decrease of minute ventilation ([1]; low dose (3×ED50)) [%]
Cc1cc(O)cc(C)c1C[C@H](N)C(=O)N[C@H](CCCNC(=N)N)C(=O)N[C@@H](Cc1ccccc1)C(=O)N[C@@H](CCCCN)C(N)=O [Example 1, H-Dmt-D-Arg-Phe-Lys-NH2] | Neither dose of H-Dmt-D-Arg-Phe-Lys-NH2 significantly decreased minute ventilation | – | – | – | – | – | – | – | –
CN1CC[C@]23c4c5ccc(O)c4O[C@H]2[C@@H](O)C=C[C@H]3[C@H]1C5 [morphine] | – | 26 | – | – | – | – | – | – | –
NCCCC[C@H](NC(=O)[C@H](Cc1ccccc1)NC(=O)[C@@H](CCCN=C(N)N)NC(=O)[C@@H](N)Cc1ccc(O)cc1)C(N)=O [DALDA, H-Tyr-D-Arg-Phe-Lys-NH2] | – | 30 | No effect | do not cross the placental barrier to a significant extent | high μ receptor affinity | excellent μ receptor selectivity | did produce delayed respiratory depression | considerable μ agonist potency | 26
